PubChem BioAssay (NCI)
Where “and” joins values, the source holds several entries; their conditions need not be identical. Equal entries are not always repeated.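 How tested: cells in 96-well plates exposed to compound for 48 hours at five concentrations. At the GI50, growth is halved. Definition used: TGI = concentration required for complete inhibition of growth.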

Columns and labels:
Assay in all cases: NCI tumour cell line growth inhibition, 48 h
SW-620 colon = test system: SW-620 colon
SF-268 CNS = test system: SF-268 CNS
786-0 renal = test system: 786-0 renal
OVCAR-8 ovarian = test system: OVCAR-8 ovarian
HOP-62 NSCLC = test system: HOP-62 NSCLC
NCI/ADR-RES ovarian = test system: NCI/ADR-RES ovarian
DU-145 prostate = test system: DU-145 prostate
NCI-H460 lung = test system: NCI-H460 lung
MDA-MB-231 breast = test system: MDA-MB-231 breast
SF-295 CNS = test system: SF-295 CNS
HT29 colon = test system: HT29 colon
OVCAR-3 ovarian = test system: OVCAR-3 ovarian
NCI-H23 lung = test system: NCI-H23 lung
CAKI-1 renal = test system: CAKI-1 renal
PC-3 prostate = test system: PC-3 prostate
UO-31 renal = test system: UO-31 renal
SK-OV-3 ovarian = test system: SK-OV-3 ovarian
HS 578T breast = test system: HS 578T breast
NCI-H226 lung = test system: NCI-H226 lung
UACC-62 melanoma = test system: UACC-62 melanoma
NCI-H522 lung = test system: NCI-H522 lung
COLO 205 colon = test system: COLO 205 colon
KM12 colon = test system: KM12 colon
M14 melanoma = test system: M14 melanoma
MOLT-4 leukemia = test system: MOLT-4 leukemia
K-562 leukemia = test system: K-562 leukemia
OVCAR-4 ovarian = test system: OVCAR-4 ovarian
SNB-75 CNS = test system: SNB-75 CNS
TK-10 renal = test system: TK-10 renal
HOP-92 NSCLC = test system: HOP-92 NSCLC
MDA-N = test system: MDA-N
U251 CNS = test system: U251 CNS
HCT-15 colon = test system: HCT-15 colon
CCRF-CEM leukemia = test system: CCRF-CEM leukemia
A498 renal = test system: A498 renal
SK-MEL-28 melanoma = test system: SK-MEL-28 melanoma
LOX IMVI melanoma = test system: LOX IMVI melanoma
HCT-116 colon = test system: HCT-116 colon
MDA-MB-435 = test system: MDA-MB-435
IGROV1 ovarian = test system: IGROV1 ovarian
HL-60(TB) leukemia = test system: HL-60(TB) leukemia
MCF7 breast = test system: MCF7 breast
SN12C renal = test system: SN12C renal
MALME-3M melanoma = test system: MALME-3M melanoma
OVCAR-5 ovarian = test system: OVCAR-5 ovarian
SNB-19 CNS = test system: SNB-19 CNS
A549 NSCLC = test system: A549 NSCLC
SK-MEL-5 melanoma = test system: SK-MEL-5 melanoma
T-47D breast = test system: T-47D breast
BT-549 breast = test system: BT-549 breast
UACC-257 melanoma = test system: UACC-257 melanoma
EKVX NSCLC = test system: EKVX NSCLC
SF-539 CNS = test system: SF-539 CNS
RXF 393 renal = test system: RXF 393 renal
RPMI-8226 leukemia = test system: RPMI-8226 leukemia
SR leukemia = test system: SR leukemia
ACHN renal = test system: ACHN renal
HCC-2998 colon = test system: HCC-2998 colon
SK-MEL-2 melanoma = test system: SK-MEL-2 melanoma

Cc1cc2c(C(C)C)c(O)c(O)c(C=NCC3CCCN4CCCCC34)c2cc1-c1cc2c(C=NCC3CCCN4CCCCC34)c(O)c(O)c(C(C)C)c2cc1C (stereo not given)
TGI (SW-620 colon): > 56.1 µM
TGI (SF-268 CNS): 19.1 µM
TGI (786-0 renal): > 67.9 µM
TGI (OVCAR-8 ovarian): 19 µM
TGI (HOP-62 NSCLC): > 38.7 µM
TGI (NCI/ADR-RES ovarian): 20.6 µM
TGI (DU-145 prostate): > 64.3 µM
TGI (NCI-H460 lung): 38.7 µM
TGI (MDA-MB-231 breast): 14.7 µM
TGI (SF-295 CNS): 25.9 µM
TGI (HT29 colon): 13.3 µM
TGI (OVCAR-3 ovarian): 29 µM
TGI (NCI-H23 lung): 27.1 µM
TGI (CAKI-1 renal): 14.6 µM
TGI (PC-3 prostate): 26.3 µM
TGI (UO-31 renal): > 45.5 µM
TGI (SK-OV-3 ovarian): 18.1 µM
TGI (HS 578T breast): 54.5 µM
TGI (NCI-H226 lung): 43.2 µM
TGI (UACC-62 melanoma): 39.3 µM
TGI (NCI-H522 lung): 11.3 µM
TGI (COLO 205 colon): 12.3 µM
TGI (KM12 colon): 17.7 µM
TGI (M14 melanoma): 33.9 µM
TGI (MOLT-4 leukemia): 20 µM
TGI (K-562 leukemia): 38.2 µM
TGI (OVCAR-4 ovarian): 43.3 µM
TGI (SNB-75 CNS): 31.3 µM
TGI (TK-10 renal): 32.5 µM
TGI (HOP-92 NSCLC): > 100 µM
TGI (MDA-N): 20.9 µM
TGI (U251 CNS): 21.5 µM
TGI (HCT-15 colon): 41.3 µM
TGI (CCRF-CEM leukemia): 7.75 µM
TGI (A498 renal): > 61.7 µM
TGI (SK-MEL-28 melanoma): 39.5 µM
TGI (LOX IMVI melanoma): > 49.1 µM
TGI (HCT-116 colon): > 100 µM
TGI (MDA-MB-435): 25.8 µM
TGI (IGROV1 ovarian): 21.6 µM
TGI (HL-60(TB) leukemia): 9.62 µM
TGI (MCF7 breast): 37 µM
TGI (SN12C renal): 17.1 µM
TGI (MALME-3M melanoma): 30.2 µM
TGI (OVCAR-5 ovarian): 38.8 µM
TGI (SNB-19 CNS): 69.9 µM
TGI (A549 NSCLC): > 75.1 µM
TGI (SK-MEL-5 melanoma): 15.5 µM
TGI (T-47D breast): > 31 µM
TGI (BT-549 breast): 36.4 µM
TGI (UACC-257 melanoma): 51.9 µM
TGI (EKVX NSCLC): 31.8 µM
TGI (SF-539 CNS): 85.9 µM
TGI (RXF 393 renal): 22.6 µM
TGI (RPMI-8226 leukemia): 58.5 µM
TGI (SR leukemia): > 100 µM
TGI (ACHN renal): 17.9 µM
TGI (HCC-2998 colon): 46.3 µM
TGI (SK-MEL-2 melanoma): 31.5 µM

O=C(O)c1cc2cc(OCc3ccccc3)ccc2[nH]1
TGI (SW-620 colon): > 100 µM
TGI (SF-268 CNS): > 100 µM
TGI (786-0 renal): > 100 µM
TGI (OVCAR-8 ovarian): > 100 µM
TGI (HOP-62 NSCLC): > 100 µM
TGI (NCI/ADR-RES ovarian): > 100 µM
TGI (DU-145 prostate): > 100 µM
TGI (NCI-H460 lung): > 100 µM
TGI (MDA-MB-231 breast): > 100 µM
TGI (SF-295 CNS): > 100 µM
GI50 (HT29 colon): > 100 µM
TGI (HT29 colon): > 100 µM
TGI (OVCAR-3 ovarian): > 100 µM
TGI (NCI-H23 lung): > 100 µM
GI50 (CAKI-1 renal): > 84.2 µM
TGI (CAKI-1 renal): > 100 µM
TGI (PC-3 prostate): > 100 µM
GI50 (UO-31 renal): 1.92 µM
TGI (UO-31 renal): > 100 µM
TGI (SK-OV-3 ovarian): > 100 µM
GI50 (HS 578T breast): > 85 µM
TGI (HS 578T breast): 77.4 µM and > 100 µM
GI50 (NCI-H226 lung): > 100 µM
TGI (NCI-H226 lung): 93.1 µM and > 100 µM
TGI (UACC-62 melanoma): > 100 µM
TGI (NCI-H522 lung): > 100 µM
TGI (COLO 205 colon): > 100 µM
TGI (KM12 colon): > 100 µM
TGI (M14 melanoma): > 100 µM
TGI (MOLT-4 leukemia): > 100 µM
TGI (K-562 leukemia): > 100 µM
GI50 (OVCAR-4 ovarian): > 100 µM
TGI (OVCAR-4 ovarian): > 100 µM
GI50 (SNB-75 CNS): 34.2 µM
TGI (SNB-75 CNS): > 100 µM
TGI (TK-10 renal): > 100 µM
GI50 (HOP-92 NSCLC): 20.7 µM
TGI (HOP-92 NSCLC): 92.4 µM and > 100 µM
TGI (MDA-N): > 100 µM
TGI (U251 CNS): > 100 µM
TGI (HCT-15 colon): > 100 µM
TGI (CCRF-CEM leukemia): > 100 µM
GI50 (A498 renal): 35.1 µM
TGI (A498 renal): > 100 µM
GI50 (SK-MEL-28 melanoma): 8.32 µM
TGI (SK-MEL-28 melanoma): 61.7 µM and > 100 µM
TGI (LOX IMVI melanoma): > 100 µM
TGI (HCT-116 colon): > 100 µM
TGI (MDA-MB-435): > 100 µM
GI50 (IGROV1 ovarian): 52.4 µM
TGI (IGROV1 ovarian): > 100 µM
TGI (HL-60(TB) leukemia): > 100 µM
GI50 (MCF7 breast): > 100 µM
TGI (MCF7 breast): > 100 µM
TGI (SN12C renal): > 100 µM
GI50 (MALME-3M melanoma): 0.198 µM
TGI (MALME-3M melanoma): 0.762 µM and 1.56 µM
TGI (OVCAR-5 ovarian): > 100 µM
GI50 (SNB-19 CNS): > 100 µM
TGI (SNB-19 CNS): > 100 µM
TGI (A549 NSCLC): > 100 µM
TGI (SK-MEL-5 melanoma): > 100 µM
TGI (T-47D breast): > 100 µM
GI50 (BT-549 breast): 59.1 µM
TGI (BT-549 breast): > 100 µM
GI50 (UACC-257 melanoma): > 74 µM
TGI (UACC-257 melanoma): > 100 µM
TGI (EKVX NSCLC): > 100 µM
TGI (SF-539 CNS): > 100 µM
TGI (RXF 393 renal): > 100 µM
TGI (RPMI-8226 leukemia): > 100 µM
TGI (SR leukemia): > 100 µM
TGI (ACHN renal): > 100 µM
TGI (HCC-2998 colon): > 100 µM
GI50 (SK-MEL-2 melanoma): > 100 µM
TGI (SK-MEL-2 melanoma): > 100 µM
